Tested on: seizures associated with hypoxic ischaemic encephalopathy (HIE) or anoxia at birth
Test: Open label, expanded-access program: seizure frequency recorded by caregivers in a diary, relative to baseline
Type: in vivo, human
Design: reduction in tonic seizures over the treatment period / reduction in spasms over the treatment period / reduction in absence seizures over the treatment period / reduction in tonic-clonic seizures over the treatment period / reduction in myoclonic seizures over the treatment period: concentration or dose not given beside the values; Seizure frequency, Tonic / Seizure frequency, Spasm / Seizure frequency, Absence / Seizure frequency, Tonic-clonic / Seizure frequency, Focal with impairment / Seizure frequency, Atonic / Seizure frequency, Focal without impairment / Seizure frequency, Focal secondary generalisation / Seizure frequency, Myoclonic: unit not given here
Protocol: Subjects were required to be on one or more AEDs at stable doses for a minimum of two weeks prior to baseline and to have stable vagus nerve stimulation (VNS) settings and ketogenic diet ratios for a minimum of four weeks prior to baseline.
Dose was then increased weekly by 5 mg/kg/day to a goal of 20 to 25 mg/kg/day.
Modifications were made to concomitant AEDs as per clinical indication.
Seizure frequency, intensity, and duration were recorded by caregivers in a diary during a baseline period of at least 28 days. Changes in seizure frequency relative to baseline were calculated after at least 2 weeks and at defined timepoints of treatment.
Patients may be defined as responders if they had more than 50% reduction in seizure frequency compared to baseline. The percent change in seizure frequency was calculated as follows: […]
The percent change of seizure frequency may be calculated for any time interval where seizure number has been recorded. For the purpose of this example the percent change of seizure frequency for the end of the treatment period was calculated as follows: […]

[1] = Patient 1, 2 weeks, CBD 8.3 mg/kg/day
[2] = Patient 1, 4 weeks, CBD 20.8 mg/kg/day
[3] = Patient 1, 8 weeks, CBD 25.2 mg/kg/day
[4] = Patient 1, 16 weeks, CBD 23.4 mg/kg/day
[5] = Patient 1, 24 weeks, CBD 22.9 mg/kg/day
[6] = Patient 1, 36 weeks, CBD 25.7 mg/kg/day
[7] = Patient 1, 48 weeks, CBD 21.8 mg/kg/day
[8] = Patient 1, treated for 48 weeks, vs baseline
[9] = Patient 2, 4 weeks, CBD 20.0 mg/kg/day
[10] = Patient 2, 8 weeks, CBD 25.0 mg/kg/day
[11] = Patient 2, 16 weeks, CBD 25.0 mg/kg/day
[12] = Patient 2, 24 weeks, CBD 25.0 mg/kg/day
[13] = Patient 2, 36 weeks, CBD 25.0 mg/kg/day
[14] = Patient 2, 48 weeks, CBD 25.0 mg/kg/day
[15] = Patient 2, 60 weeks, CBD 25.0 mg/kg/day
[16] = Patient 2, 72 weeks, CBD 25.0 mg/kg/day
[17] = Patient 2, 84 weeks, CBD 25.0 mg/kg/day
[18] = Patient 2, treated for 84 weeks, vs baseline
[19] = Patient 3, 4 weeks, CBD 5.0 mg/kg/day
[20] = Patient 3, 8 weeks, CBD 20.0 mg/kg/day
[21] = Patient 3, 12 weeks, CBD 25.0 mg/kg/day
[22] = Patient 3, 16 weeks, CBD 25.0 mg/kg/day
[23] = Patient 3, 24 weeks, CBD 30.0 mg/kg/day
[24] = Patient 3, 36 weeks, CBD 40.0 mg/kg/day
[25] = Patient 3, 48 weeks, CBD 50.0 mg/kg/day
[26] = Patient 3, 72 weeks, CBD 50.0 mg/kg/day
[27] = Patient 3, 84 weeks, CBD 50.0 mg/kg/day
[28] = Patient 3, 96 weeks, CBD 50.0 mg/kg/day
[29] = Patient 3, 108 weeks, CBD 50.0 mg/kg/day
[30] = Patient 3, 120 weeks, CBD 50.0 mg/kg/day
[31] = Patient 3, 132 weeks, CBD 50.0 mg/kg/day
[32] = Patient 4, 4 weeks, CBD 5.0 mg/kg/day
[33] = Patient 4, 8 weeks, CBD 5.0 mg/kg/day
[34] = Patient 4, 12 weeks, CBD 10.0 mg/kg/day
[35] = Patient 4, 24 weeks, CBD 15.0 mg/kg/day
[36] = Patient 4, 36 weeks, CBD 15.0 mg/kg/day

C=C(C)[C@@H]1CCC(C)=C[C@H]1c1c(O)cc(CCCCC)cc1O [CBD, cannabidiol]
Seizure frequency, Spasm [1]: 108.0 | Seizure frequency, Tonic [1]: 1044.0 | Seizure frequency, Spasm [2]: 102.8 | Seizure frequency, Tonic [2]: 904.0 | Seizure frequency, Spasm [3]: 50.8 | Seizure frequency, Tonic [3]: 770.0 | Seizure frequency, Spasm [4]: 78.0 | Seizure frequency, Tonic [4]: 764.8 | Seizure frequency, Spasm [5]: 48.0 | Seizure frequency, Tonic [5]: 917.2 | Seizure frequency, Spasm [6]: 51.2 | Seizure frequency, Tonic [6]: 634.0 | Seizure frequency, Spasm [7]: 69.2 | Seizure frequency, Tonic [7]: 424.8 | reduction in spasms over the treatment period [8]: 44.2% | reduction in tonic seizures over the treatment period [8]: 59.8% | Seizure frequency, Absence [9]: 52.0 | Seizure frequency, Spasm [9]: 440.0 | Seizure frequency, Absence [10]: 52.0 | Seizure frequency, Spasm [10]: 600.0 | Seizure frequency, Absence [11]: 12.0 | Seizure frequency, Spasm [11]: 632.0 | Seizure frequency, Absence [12]: 24.0 | Seizure frequency, Spasm [12]: 580.0 | Seizure frequency, Absence [13]: 0 | Seizure frequency, Spasm [13]: 560.0 | Seizure frequency, Absence [14]: 0 | Seizure frequency, Spasm [14]: 490.0 | Seizure frequency, Absence [15]: 0 | Seizure frequency, Spasm [15]: 196.0 | Seizure frequency, Absence [16]: 0 | Seizure frequency, Spasm [16]: 300.0 | Seizure frequency, Absence [17]: 0 | Seizure frequency, Spasm [17]: 340.0 | reduction in absence seizures over the treatment period [18]: 100% | reduction in spasms over the treatment period [18]: 41.4% | Seizure frequency, Focal with impairment [19]: 43.0 | Seizure frequency, Tonic [19]: 193.0 | Seizure frequency, Tonic-clonic [19]: 2.0 | Seizure frequency, Focal with impairment [20]: 132.0 | Seizure frequency, Tonic [20]: 132.0 | Seizure frequency, Tonic-clonic [20]: 0 | Seizure frequency, Focal with impairment [21]: 38.0 | Seizure frequency, Tonic [21]: 123.0 | Seizure frequency, Tonic-clonic [21]: 0 | Seizure frequency, Focal with impairment [22]: 46.0 | Seizure frequency, Tonic [22]: 120.0 | Seizure frequency, Tonic-clonic [22]: 6.0 | Seizure frequency, Focal with impairment [23]: 51.2 | Seizure frequency, Tonic [23]: 122.0 | Seizure frequency, Tonic-clonic [23]: 4.8 | Seizure frequency, Tonic [24]: 124.8 | Seizure frequency, Tonic-clonic [24]: 20.0 | Seizure frequency, Focal with impairment [25]: 38.8 | Seizure frequency, Tonic [25]: 136.0 | Seizure frequency, Tonic-clonic [25]: 11.2 | Seizure frequency, Focal with impairment [26]: 53.0 | Seizure frequency, Tonic [26]: 94.7 | Seizure frequency, Tonic-clonic [26]: 4.0 | Seizure frequency, Focal with impairment [27]: 53.0 | Seizure frequency, Tonic [27]: 72.0 | Seizure frequency, Tonic-clonic [27]: 5.7 | Seizure frequency, Focal with impairment [28]: 46.3 | Seizure frequency, Tonic [28]: 70.0 | Seizure frequency, Tonic-clonic [28]: 11.6 | Seizure frequency, Focal with impairment [29]: 46.4 | Seizure frequency, Tonic [29]: 35.0 | Seizure frequency, Tonic-clonic [29]: 10.4 | Seizure frequency, Focal with impairment [30]: 62.8 | Seizure frequency, Tonic [30]: 46.8 | Seizure frequency, Tonic-clonic [30]: 9.8 | Seizure frequency, Focal with impairment [31]: 77.2 | Seizure frequency, Tonic [31]: 54.4 | Seizure frequency, Tonic-clonic [31]: 12.0 | Seizure frequency, Atonic [32]: 0 | Seizure frequency, Tonic [32]: 4.0 | Seizure frequency, Tonic-clonic [32]: 13.0 | Seizure frequency, Atonic [33]: 0 | Seizure frequency, Tonic [33]: 3.0 | Seizure frequency, Tonic-clonic [33]: 18.0 | Seizure frequency, Atonic [34]: 0 | Seizure frequency, Tonic [34]: 0 | Seizure frequency, Tonic-clonic [34]: 10.0 | Seizure frequency, Atonic [35]: 6.0 | Seizure frequency, Tonic [35]: 0 | Seizure frequency, Tonic-clonic [35]: 0.6 | Seizure frequency, Atonic [36]: 1.7 | Seizure frequency, Tonic [36]: 0

Source: patent US20230310464A1, “USE OF C[…] THE TREATMENT OF SEIZURES ASSOCIATED WITH RARE […] SYNDROMES RELATED TO BRAIN INJURY” (GW Research Limited, priority 2020, published 2023)
